Measured values published in patent US7964734B2, “Raloxifene acid addition salts and/or solvates thereof, improved method for purification of said raloxifene acid addition salts and/or solvates thereof and pharmaceutical compositions comprising these” (A/S Gea Farmaceutisk Fabrik, priority 2002, dated 2011).
Where a name gives a salt, the structure may show the parent alone. Read-outs that look alike come from different tables or passages of the source.

What was measured:
[1] = Intrinsic dissolution rate, Rotation Disc Method (USP 1087); assay type: physicochemical; conditions: 37° C., 100 rpm, average of two measurements
Method: The raloxifene hydrochloride salt used in these experiments was purchased from Otto Bradt GmbH (batch MA/RF/12003) while the rest of the raloxifene acid additions salts were prepared according to Example 1-6.
The experiments were carried out following the procedure of Rotation Disc Method (USP 1087) using Vankel VK 7000 Intrinsic dissolution apparatus (Vankel Technology group, W. Vankelion) equipped with Vankel 12-4120 intrinsic disc having a surface area of 0.5 cm^2, Vankel 12-4130 surface plate, Vankel 12-4140 punch, and Vankel shaft and holder (surface area: 0.5 cm^2) and operating at a rotation rate of 100 rpm.
The buffer solution is handled in a 750 ml measuring bottle, degassed and transferred into a dissolution vessel. Approximately 100 mg compound is weighed out and transferred into an intrinsic disc. Said disc is then assembled, and to said disc a disc is applied in the IR-press at a pressure of 5 kN for 1 minute. The disc is started and samples of 10 ml are collected by use of “pressure vials” after 1, 10, 20, 30, 45, and 60 minutes. The change of volume is corrected using the equation: Q=Vs×(sumCn−1)+Cn×Vt wherein Q designates the volume at the time t, C designates the concentration of the sample n, Vt designates the volume of the liquid collected at the time t, and Vs designates the volume of the sample collected. The sample is measured against a standard using HPLC. In these measurements a 5 microns 3.9×150 mm column filled with symmetrical material is employed and as eluant a 20 mM phosphate buffer KH2PO4, pH 6.8 mixed with acetonitrile and tetrahydrofuran in the ratio 55:35:10 is used.
The standard is prepared by use of following procedure: 20 mg of salt is dissolved initially in 100 ml of MeOH and then 1 ml of this solution is transferred to a 50 ml flask with water and then 2 ml to a 20 ml flask of buffer in question.
pH 1: a 0.1 M HCl is used.
0.025 M Phosphate buffer solution pH 2.0: 3.40 g of potassium dihydrogen phosphate is dissolved in 900 ml of water. Then pH is adjusted to 2.0 with phosphoric acid and diluted to 1000.0 ml with water. Exactly 5.85 g of NaCl is added to 1 L of buffer.
0.025 M Phosphate buffer solution pH 3.0: 3.40 g of potassium dihydrogen phosphate is dissolved in 900 ml of water. Then pH is adjusted to 3.0 with phosphoric acid and diluted to 1000.0 ml with water. Exactly 5.85 g of NaCl is added to 1 L of buffer.
0.022 M Phosphate buffer solution pH 4.0: 3.0 g of potassium dihydrogen phosphate is dissolved in 800 ml of water. Then pH is adjusted with 1 M potassium hydroxide and phosphoric acid and diluted to 1000.0 ml with water. Exactly 5.85 g of NaCl is added to 1 L of buffer. 0.02 M Phosphate buffer solution pH 5.0: 2.72 g of potassium dihydrogen phosphate is dissolved in 800 ml of water. Then pH is adjusted with 1 M potassium hydroxide and diluted to 1000.0 ml with water. Exactly 5.85 g of NaCl is added to 1 L of buffer.

[2] = Solubility in aqueous solvents/media (general statement); assay type: physicochemical; conditions: versus aqueous media
[3] = cited from earlier work
[4] = Dissolution test in dilute acid, evaluated visually; assay type: physicochemical
Method: 60 mg raloxifene HCl was transferred to a dissolution vessel containing one liter 0.1 M HCl. The mixture was vigorously mixed and left at room temperature over night. Subsequently the dissolution was evaluated visually.
A similar dissolution test was performed using 60 mg raloxifene hydrochloride in 0.1 M phosphoric acid.

[5] = Hydrochloride, pH 1 (0.1 M HCl)
[6] = Phosphate, pH 2, chloride 0.1 M
[7] = Phosphate, pH 3, chloride 0.1 M
[8] = Phosphate, pH 4, chloride 0.1 M
[9] = Phosphate, pH 5, chloride 0.1 M

Compound	intrinsic dissolution rate (IDR) [1, 5] [μmol/min * cm^2]	intrinsic dissolution rate (IDR) [1, 6] [μmol/min * cm^2]	intrinsic dissolution rate (IDR) [1, 7] [μmol/min * cm^2]	intrinsic dissolution rate (IDR) [1, 8] [μmol/min * cm^2]	intrinsic dissolution rate (IDR) [1, 9] [μmol/min * cm^2]	solubility in aqueous media comprising hydrochloric acid [2]	solubility in aqueous solvents ([3]; hydrochloride)	dissolution evaluated visually ([4]; 60 mg in 0.1 M phosphoric acid, similar test)	dissolution evaluated visually ([4]; 60 mg in one liter 0.1 M HCl, vigorously mixed, room temperature over night)	solubility in aqueous solvents [3]
CC(O)C(=O)O.O=C(c1ccc(OCCN2CCCCC2)cc1)c1c(-c2ccc(O)cc2)sc2cc(O)ccc12 [DL-lactate hemihydrate, [6-hydroxy-2-(4-hydroxyphenyl)benzo[b]thien-3-yl][4-[2-(1-piperidinyl)ethoxy]phenyl-, DL-lactate]	0.0056	0.0119	0.0062	0.0212	0.0215	–	–	–	–	–
O=C(c1ccc(OCCN2CCCCC2)cc1)c1c(-c2ccc(O)cc2)sc2cc(O)ccc12 [Hydrochloride, raloxifene hydrochloride, reference compound]	0.0022	0.0026	0.0022	0.0022	0.0044	decreases significant	fairly soluble	all raloxifene hydrochloride seemed to be dissolved	Very little of the initial added amount of raloxifene hydrochloride was dissolved	–
O=C(c1ccc(OCCN2CCCCC2)cc1)c1c(-c2ccc(O)cc2)sc2cc(O)ccc12 [raloxifene as free base, 6-hydroxy-2-(4-hydrophenyl)-3-[4-(2-piperidinoethoxy)-benzoyl]benzo-[b]-thiophene]	–	–	–	–	–	–	–	–	–	only sparingly soluble
[6-hydroxy-2-(4-hydroxyphenyl)benzo[b]thien-3-yl][4-[2-(1-piperidinyl)ethoxy]phenyl-, succinate	0.0550	0.0228	0.0271	0.0127	0.0119	–	–	–	–	–

The next lines start with results.

intrinsic dissolution rate (IDR) [1, 5] [μmol/min * cm^2]	intrinsic dissolution rate (IDR) [1, 6] [μmol/min * cm^2]	intrinsic dissolution rate (IDR) [1, 7] [μmol/min * cm^2]	intrinsic dissolution rate (IDR) [1, 8] [μmol/min * cm^2]	intrinsic dissolution rate (IDR) [1, 9] [μmol/min * cm^2]	solubility in aqueous media comprising hydrochloric acid [2]	Compound	solubility in aqueous solvents ([3]; hydrochloride)	dissolution evaluated visually ([4]; 60 mg in 0.1 M phosphoric acid, similar test)	dissolution evaluated visually ([4]; 60 mg in one liter 0.1 M HCl, vigorously mixed, room temperature over night)	solubility in aqueous solvents [3]
0.0035	0.0028	0.0067	0.0324	0.0247	–	C[C@H](O)C(=O)O.O=C(c1ccc(OCCN2CCCCC2)cc1)c1c(-c2ccc(O)cc2)sc2cc(O)ccc12 [L-Lactate ¼-hydrate]	–	–	–	–
0.0475	0.0453	0.0403	0.0190	0.0091	–	C[C@H](O)C(=O)O.O=C(c1ccc(OCCN2CCCCC2)cc1)c1c(-c2ccc(O)cc2)sc2cc(O)ccc12 [L-lactate hemihydrate]	–	–	–	–
0.0229	0.0173	0.0148	0.0136	0.0112	–	O=C(O)CC(=O)O.O=C(c1ccc(OCCN2CCCCC2)cc1)c1c(-c2ccc(O)cc2)sc2cc(O)ccc12 [Malonate]	–	–	–	–
